Laboratory results reported in PubChem BioAssay AID210 (DTP/NCI, 2004).
Several values for one entry are separate records, joined by “and”; a condition that tells them apart may be missing. Identical values can stand only once. Inconclusive results and toxic doses are left out. Rule for the calls: active = survival T/C of 150% or more; inactive = T/C below 125% in these data. *1 amine or outer side, *2 acyl side, *3 side chain or, on linkers, in order; H or OH if unused. Where a SMILES comes first, the peptide text is derived from it. Bridges are numbered along the chain shown (N, C = ends). Roman numbers before positions name the chains, in order. [ ]: non-standard residue; d: D form. Actinocin(9to1) = Cc1c2oc3c(C)ccc(C(=O)[*:1])c3nc-2c(C(=O)[*:2])c(N)c1=O; aThr = C[C@H](O)[C@H](N)C(=O)O; NMeV = CN[C@H](C(=O)O)C(C)C; Sar = CNCC(=O)O

Test system: CD2F1 mice, ip Colon 26 adenocarcinoma, median survival T/C
Test: NCI In Vivo Anticancer Drug Screen. Data for tumor model Colon 26 Adenocarcinoma (intraperitoneal) in CD2F1 (CDF1) mice
Conditions: endpoint: median survival time, higher = longer survival
Protocol: The antitumor activity of compounds was measured in mice bearing transplantable tumors. Survival or tumor size were measured and the results are expressed as the measurement made in the treated group (T) divided by the measurement made in the vehicle treated control group (C). The tumor model used in this assay is Colon 26 Adenocarcinoma (intraperitoneal) in CD2F1 (CDF1) mice

[1] = dose: 4.0 mg/kg/injection, schedule: Q01DX009 (ip), vehicle: acid diluted with saline
[2] = dose: 8.0 mg/kg/injection, schedule: Q01DX009 (ip), vehicle: acid diluted with saline
[3] = dose: 16.0 mg/kg/injection, schedule: Q01DX009 (ip), vehicle: acid diluted with saline

Measured: T/C

O=C1c2ccccc2C(=O)c2c(NCCNCCO)ccc(NCCNCCO)c21
inactive: dose: 3.89 mg/kg/injection, schedule: Q01DX009 (sc), vehicle: saline 104 % of control | dose: 6.22 mg/kg/injection, schedule: Q04DX003 (iv), vehicle: saline 110 % of control | dose: 6.48 mg/kg/injection, schedule: Q01DX009 (sc), vehicle: saline 104 % of control | dose: 7.78 mg/kg/injection, schedule: Q01DX001 (iv), vehicle: saline 104 % of control | dose: 10.4 mg/kg/injection, schedule: Q04DX003 (iv), vehicle: saline 106 % of control | dose: 10.8 mg/kg/injection, schedule: Q01DX009 (sc), vehicle: saline 105 % of control | dose: 13.0 mg/kg/injection, schedule: Q01DX001 (iv), vehicle: saline 116 % of control | dose: 17.3 mg/kg/injection, schedule: Q04DX003 (iv), vehicle: saline 101 % of control | dose: 18.0 mg/kg/injection, schedule: Q01DX009 (sc), vehicle: saline 99 % of control | dose: 21.6 mg/kg/injection, schedule: Q01DX001 (iv), vehicle: saline 100 % of control | dose: 25.0 mg/kg/injection, schedule: Q07DX003 (iv), vehicle: Klucel (hydroxypropylcellulose) (HPC) 104 % of control | dose: 28.8 mg/kg/injection, schedule: Q04DX003 (iv), vehicle: saline 101 % of control | dose: 30.0 mg/kg/injection, schedule: Q01DX009 (sc), vehicle: saline 90 % of control | dose: 36.0 mg/kg/injection, schedule: Q01DX001 (iv), vehicle: saline 109 % of control | dose: 48.0 mg/kg/injection, schedule: Q04DX003 (iv), vehicle: saline 108 % of control | dose: 50.0 mg/kg/injection, schedule: Q07DX003 (iv), vehicle: Klucel (hydroxypropylcellulose) (HPC) 108 % of control | dose: 60.0 mg/kg/injection, schedule: Q01DX001 (iv), vehicle: saline 105 % of control
121 % of control and 209 % of control: dose: 8.0 mg/kg/injection, schedule: Q04DX003 (ip), vehicle: water
active: dose: 2.0 mg/kg/injection, schedule: Q01DX009 (ip), vehicle: saline 191 % of control | dose: 2.5 mg/kg/injection, schedule: Q01DX009 (ip), vehicle: saline 200 % of control and 223 % of control | dose: 2.62 mg/kg/injection, schedule: Q01DX009 (ip), vehicle: saline 172 % of control | dose: 3.89 mg/kg/injection, schedule: Q01DX009 (ip), vehicle: saline 209 % of control | [1] 182 % of control | dose: 4.0 mg/kg/injection, schedule: Q01DX009 (ip), vehicle: saline 226 % of control | dose: 5.0 mg/kg/injection, schedule: Q01DX009 (ip), vehicle: saline 193 % of control and 223 % of control | dose: 5.25 mg/kg/injection, schedule: Q01DX009 (ip), vehicle: saline 213 % of control | dose: 6.48 mg/kg/injection, schedule: Q01DX009 (ip), vehicle: saline 209 % of control | [2] 219 % of control | dose: 8.0 mg/kg/injection, schedule: Q01DX009 (ip), vehicle: saline 236 % of control | dose: 8.0 mg/kg/injection, schedule: Q04DX003 (ip), vehicle: Klucel (hydroxypropylcellulose) (HPC) 168 % of control | dose: 10.0 mg/kg/injection, schedule: Q01DX009 (ip), vehicle: saline 212 % of control and 267 % of control | dose: 10.5 mg/kg/injection, schedule: Q01DX009 (ip), vehicle: saline 294 % of control | dose: 10.8 mg/kg/injection, schedule: Q01DX009 (ip), vehicle: saline 182 % of control | [3] 219 % of control | dose: 16.0 mg/kg/injection, schedule: Q01DX009 (ip), vehicle: saline 305 % of control | dose: 16.0 mg/kg/injection, schedule: Q04DX003 (ip), vehicle: Klucel (hydroxypropylcellulose) (HPC) 200 % of control and 170 % of control and 220 % of control | dose: 16.0 mg/kg/injection, schedule: Q04DX003 (ip), vehicle: water 188 % of control and 287 % of control | dose: 17.3 mg/kg/injection, schedule: Q04DX003 (ip), vehicle: saline 189 % of control | dose: 18.0 mg/kg/injection, schedule: Q01DX009 (ip), vehicle: saline 182 % of control | dose: 20.0 mg/kg/injection, schedule: Q01DX009 (ip), vehicle: saline 193 % of control | dose: 21.0 mg/kg/injection, schedule: Q01DX009 (ip), vehicle: saline 268 % of control | dose: 28.8 mg/kg/injection, schedule: Q04DX003 (ip), vehicle: saline 150 % of control | dose: 32.0 mg/kg/injection, schedule: Q01DX009 (ip), vehicle: acid diluted with saline 274 % of control | dose: 32.0 mg/kg/injection, schedule: Q04DX003 (ip), vehicle: Klucel (hydroxypropylcellulose) (HPC) 162 % of control and 182 % of control | dose: 32.0 mg/kg/injection, schedule: Q04DX003 (ip), vehicle: water 159 % of control and 287 % of control | dose: 42.0 mg/kg/injection, schedule: Q01DX009 (ip), vehicle: saline 268 % of control | dose: 48.0 mg/kg/injection, schedule: Q04DX003 (ip), vehicle: saline 161 % of control | dose: 64.0 mg/kg/injection, schedule: Q04DX003 (ip), vehicle: Klucel (hydroxypropylcellulose) (HPC) 163 % of control and 173 % of control | dose: 64.0 mg/kg/injection, schedule: Q04DX003 (ip), vehicle: water 177 % of control and 209 % of control | dose: 80.0 mg/kg/injection, schedule: Q04DX003 (ip), vehicle: saline 165 % of control

O=[N+]([O-])O.[Ga]
inactive: dose: 12.5 mg/kg/injection, schedule: Q01DX005 (ip), vehicle: saline 97 % of control | dose: 12.5 mg/kg/injection, schedule: Q04DX003 (ip), vehicle: saline 103 % of control | dose: 25.0 mg/kg/injection, schedule: Q01DX005 (ip), vehicle: saline 96 % of control | dose: 25.0 mg/kg/injection, schedule: Q04DX003 (ip), vehicle: saline 108 % of control | dose: 50.0 mg/kg/injection, schedule: Q01DX005 (ip), vehicle: saline 87 % of control | dose: 50.0 mg/kg/injection, schedule: Q04DX003 (ip), vehicle: saline 106 % of control | dose: 100.0 mg/kg/injection, schedule: Q04DX003 (ip), vehicle: saline 87 % of control

Cc1c2oc3c(C)ccc(C(=O)N[C@@H]4C(=O)N[C@H](C(C)C)C(=O)N5CCC[C@H]5C(=O)N(C)CC(=O)N(C)[C@@H](C(C)C)C(=O)O[C@H]4C)c3nc-2c(C(=O)N[C@@H]2C(=O)N[C@H](C(C)C)C(=O)N3CCC[C@H]3C(=O)N(C)CC(=O)N(C)[C@@H](C(C)C)C(=O)O[C@H]2C)c(N)c1=O (I: [aThr][dV]P[Sar][NMeV] / II: [aThr][dV]P[Sar][NMeV]; ester I:1-I:C, II:1-II:C; linker I:N-II:N via Actinocin(9to1))
inactive: dose: 0.13 mg/kg/injection, schedule: Q01DX001 (ip), vehicle: saline 92 % of control | dose: 0.25 mg/kg/injection, schedule: Q01DX001 (ip), vehicle: saline 99 % of control | dose: 0.5 mg/kg/injection, schedule: Q01DX001 (ip), vehicle: saline 110 % of control | dose: 1.0 mg/kg/injection, schedule: Q01DX001 (ip), vehicle: saline 107 % of control | dose: 28.0 micrograms/kg/injection, schedule: Q04DX003 (ip), vehicle: saline 122 % of control | dose: 125.0 micrograms/kg/injection, schedule: Q01DX001 (ip), vehicle: saline + alcohol 113 % of control | dose: 180.0 micrograms/kg/injection, schedule: Q04DX003 (ip), vehicle: saline + alcohol 123 % of control | dose: 250.0 micrograms/kg/injection, schedule: Q01DX001 (ip), vehicle: saline + alcohol 109 % of control | dose: 500.0 micrograms/kg/injection, schedule: Q01DX001 (ip), vehicle: saline + alcohol 113 % of control
active: dose: 216.0 micrograms/kg/injection, schedule: Q04DX003 (ip), vehicle: saline 156 % of control | dose: 500.0 micrograms/kg/injection, schedule: Q04DX003 (ip), vehicle: saline + alcohol 153 % of control

CC(=O)OCC1(C)C(O)CCC2(C)C1CCC1CC3CC12CCC3(O)CO (stereo not given)
inactive: dose: 12.5 mg/kg/injection, schedule: Q04DX002 (ip), vehicle: distilled water + Tween-80 103 % of control | dose: 25.0 mg/kg/injection, schedule: Q04DX002 (ip), vehicle: distilled water + Tween-80 111 % of control | dose: 50.0 mg/kg/injection, schedule: Q04DX002 (ip), vehicle: distilled water + Tween-80 95 % of control | dose: 100.0 mg/kg/injection, schedule: Q04DX002 (ip), vehicle: distilled water + Tween-80 104 % of control

O=C1c2ccccc2C(=O)c2c(NCCNCCO)ccc(O)c21
active: dose: 1.88 mg/kg/injection, schedule: Q01DX009 (ip), vehicle: acid diluted with saline 162 % of control | dose: 2.0 mg/kg/injection, schedule: Q01DX009 (ip), vehicle: acid diluted with saline 152 % of control | dose: 3.75 mg/kg/injection, schedule: Q01DX009 (ip), vehicle: acid diluted with saline 177 % of control | [1] 212 % of control | dose: 7.5 mg/kg/injection, schedule: Q01DX009 (ip), vehicle: acid diluted with saline 196 % of control | [2] 245 % of control | dose: 15.0 mg/kg/injection, schedule: Q01DX009 (ip), vehicle: acid diluted with saline 182 % of control | [3] 263 % of control
